Measurements reported in ChEMBL document CHEMBL2074484, “Molecular cloning and characterization of two novel human renal organic anion transporters (hOAT1 and hOAT3)” (Biochem Biophys Res Commun, 1999).
Values belong to the compound of their own block, whether it stands above or below them.

Legend:
Format in all cases: functional, cell-based
Details in all cases: oocyte
[1] = molecular target: T1, Organic anion transporter 3 (Homo sapiens, UniProt Q8TCC7); test: (§1) TP_TRANSPORTER: uptake in Xenopus laevis oocytes
T1 sequence (Q8TCC7 whole entry): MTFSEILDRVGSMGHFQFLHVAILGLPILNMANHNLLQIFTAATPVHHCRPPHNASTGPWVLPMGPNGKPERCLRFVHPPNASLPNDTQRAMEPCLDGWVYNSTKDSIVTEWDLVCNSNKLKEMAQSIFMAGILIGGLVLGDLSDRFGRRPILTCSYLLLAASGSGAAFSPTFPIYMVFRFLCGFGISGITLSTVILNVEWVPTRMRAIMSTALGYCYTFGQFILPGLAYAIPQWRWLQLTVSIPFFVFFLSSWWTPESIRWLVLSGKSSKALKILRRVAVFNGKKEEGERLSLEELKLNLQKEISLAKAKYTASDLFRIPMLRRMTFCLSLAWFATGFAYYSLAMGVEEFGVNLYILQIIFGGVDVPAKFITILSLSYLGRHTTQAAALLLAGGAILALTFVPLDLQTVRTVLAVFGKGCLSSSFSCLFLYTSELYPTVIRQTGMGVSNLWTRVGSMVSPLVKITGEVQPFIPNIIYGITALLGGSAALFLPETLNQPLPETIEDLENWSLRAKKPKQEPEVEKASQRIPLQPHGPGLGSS

[2] = molecular target: T2, Solute carrier family 22 member 6 (Homo sapiens, UniProt Q4U2R8); test: TP_TRANSPORTER: inhibition of PAH uptake (PAH: 1 uM, Bumetamide: 100 uM) in Xenopus laevis oocytes
T2 sequence (Q4U2R8 whole entry): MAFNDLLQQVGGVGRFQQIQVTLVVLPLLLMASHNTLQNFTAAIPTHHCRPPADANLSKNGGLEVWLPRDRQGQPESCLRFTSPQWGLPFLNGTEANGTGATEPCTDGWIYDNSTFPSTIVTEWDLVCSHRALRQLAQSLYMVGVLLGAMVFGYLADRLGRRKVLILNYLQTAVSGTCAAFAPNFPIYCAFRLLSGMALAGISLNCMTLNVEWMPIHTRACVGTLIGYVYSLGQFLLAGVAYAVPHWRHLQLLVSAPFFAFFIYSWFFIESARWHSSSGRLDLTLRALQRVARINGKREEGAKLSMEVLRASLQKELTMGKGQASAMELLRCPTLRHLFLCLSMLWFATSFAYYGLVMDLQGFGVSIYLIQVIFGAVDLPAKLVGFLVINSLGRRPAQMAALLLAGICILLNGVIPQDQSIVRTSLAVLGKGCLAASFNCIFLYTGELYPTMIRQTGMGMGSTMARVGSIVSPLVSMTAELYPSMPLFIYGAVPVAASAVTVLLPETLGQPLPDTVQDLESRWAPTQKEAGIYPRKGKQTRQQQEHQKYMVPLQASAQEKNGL

[3] = molecular target: T2, Solute carrier family 22 member 6; test: TP_TRANSPORTER: inhibition of PAH uptake (PAH: 1 uM, Hydrochlorothiazide: 100 uM) in Xenopus laevis oocytes
[4] = molecular target: T2, Solute carrier family 22 member 6; test: TP_TRANSPORTER: inhibition of PAH uptake (PAH: 1 uM, Losartan: 100 uM) in Xenopus laevis oocytes
[5] = molecular target: T2, Solute carrier family 22 member 6; test: TP_TRANSPORTER: inhibition of PAH uptake (PAH: 1 uM, Urate: 100 uM) in Xenopus laevis oocytes
[6] = molecular target: T2, Solute carrier family 22 member 6; test: as §1

Structure (SMILES): Nc1ccc(C(=O)NCC(=O)O)cc1 [AMINOHIPPURIC ACID]
Activity [1]: is not a substrate [-]

Structure (SMILES): CCCCNc1cc(C(=O)O)cc(S(N)(=O)=O)c1Oc1ccccc1 [BUMETANIDE]
Activity [2]: inhibitor [(at a rough estimate) 45 % of control]

Structure (SMILES): CCCCc1nc(Cl)c(CO)n1Cc1ccc(-c2ccccc2-c2nn[nH]n2)cc1 [LOSARTAN]
Activity [4]: inhibitor [(at a rough estimate) 25 % of control]

Structure (SMILES): O=C([O-])C(=O)[O-].[Na+].[Na+] [SODIUM OXALATE]
Activity [1]: is not a substrate [-]

Structure (SMILES): CC[N+](CC)(CC)CC [TETRYLAMMONIUM]
Activity [1]: is not a substrate [-]

Other lines, results leading:

Activity [3]: is not an inhibitor [-]
Structure (SMILES): NS(=O)(=O)c1cc2c(cc1Cl)NCNS2(=O)=O [HYDROCHLOROTHIAZIDE]

Activity [5]: is not an inhibitor [-]
Activity [6]: is not a substrate [-]
Activity [1]: is not a substrate [-]
Structure (SMILES): O=c1[nH]c(=O)c2[nH]c(=O)[nH]c2[nH]1 [URIC ACID]
